This is an account of results in patent US20240018153A1, “BENZENESULFONAMIDE DERIVATIVES AND USES THEREOF” (2692372 ONTARIO, INC., priority 2020, published 2024).

For test [1], the target named is EGFR (Homo sapiens (Human), UniProt P00533). Kind of test: HTRF KinEASE-TK kinase assay, EGFR. It counts as biochemical. The note with it: 3 h preincubation; for remaining activity at 1 µM: 1 μM compound, read-out: % EGFR Remaining activity vs DMSO (1 μM, 3 h); for remaining activity at 10 µM: 10 μM compound, read-out: % EGFR Remaining activity vs DMSO (10 μM, 3 h); for IC50: dose response, read-out: EGFR Inhibition IC50. A digest of the protocol: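 HTRF KinEASE-TK format: EGFR pre-incubated with compound at 1 and 10 uM final (0.5% DMSO) in kinase buffer with 2 mM MnCl2, 5 mM MgCl2 and 1 mM TCEP.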
Sequence of EGFR (P00533 25-1210): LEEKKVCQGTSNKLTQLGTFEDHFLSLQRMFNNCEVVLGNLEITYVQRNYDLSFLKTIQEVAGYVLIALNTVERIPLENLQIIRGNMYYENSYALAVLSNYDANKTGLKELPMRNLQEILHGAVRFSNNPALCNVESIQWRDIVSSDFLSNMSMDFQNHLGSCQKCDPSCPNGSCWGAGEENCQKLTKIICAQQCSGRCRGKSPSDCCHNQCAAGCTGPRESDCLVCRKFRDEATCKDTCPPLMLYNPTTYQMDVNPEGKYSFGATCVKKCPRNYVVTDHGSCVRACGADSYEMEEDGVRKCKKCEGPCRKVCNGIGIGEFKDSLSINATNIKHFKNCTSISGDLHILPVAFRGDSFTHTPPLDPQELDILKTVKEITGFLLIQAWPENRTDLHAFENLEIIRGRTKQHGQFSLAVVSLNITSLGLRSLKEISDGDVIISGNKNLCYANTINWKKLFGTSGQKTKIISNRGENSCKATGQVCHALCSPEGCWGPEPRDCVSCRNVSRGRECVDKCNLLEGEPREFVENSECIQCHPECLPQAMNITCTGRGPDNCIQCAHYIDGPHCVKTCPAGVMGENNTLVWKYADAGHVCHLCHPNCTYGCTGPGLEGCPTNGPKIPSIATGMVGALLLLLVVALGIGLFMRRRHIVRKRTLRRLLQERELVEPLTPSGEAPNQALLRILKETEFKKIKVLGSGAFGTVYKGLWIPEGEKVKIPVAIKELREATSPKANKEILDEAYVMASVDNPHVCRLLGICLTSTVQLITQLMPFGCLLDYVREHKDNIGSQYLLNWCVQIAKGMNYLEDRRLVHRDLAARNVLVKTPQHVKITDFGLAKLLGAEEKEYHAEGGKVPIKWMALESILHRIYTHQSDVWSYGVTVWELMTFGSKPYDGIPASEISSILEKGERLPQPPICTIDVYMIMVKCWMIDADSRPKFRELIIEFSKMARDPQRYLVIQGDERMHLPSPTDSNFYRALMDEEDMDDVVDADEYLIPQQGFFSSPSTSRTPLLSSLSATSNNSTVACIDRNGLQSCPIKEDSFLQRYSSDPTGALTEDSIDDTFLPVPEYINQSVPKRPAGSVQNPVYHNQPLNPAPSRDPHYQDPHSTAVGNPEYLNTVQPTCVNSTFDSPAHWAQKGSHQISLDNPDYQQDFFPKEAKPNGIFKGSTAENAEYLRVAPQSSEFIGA

For test [2], the target named is T1, BTK (Homo sapiens (Human), UniProt Q06187). As to the kind of experiment: HTRF KinEASE-TK kinase assay, BTK. It counts as biochemical. The conditions noted are these: 3 h preincubation; for remaining activity at 1 µM: 1 μM compound, read-out: % BTK Remaining activity vs DMSO (1 μM, 3 h); for remaining activity at 10 µM: 10 μM compound, read-out: % BTK Remaining activity vs DMSO (10 μM, 3 h). In short, it runs like this:
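BTK activity in HTRF KinEASE-TK format, buffer containing 10 mM MnCl2, 5 mM MgCl2, 1 uM ATPγS and 1 mM TCEP; 45 min reaction with biotinylated substrate and ATP.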
(In general: TR-FRET usually uses a lanthanide donor and a delayed reading to cut background.)

In test [3] the target is T1, BTK. Kind of test: Ramos RA1 cell lysis and immunoassay, total BTK degradation. It counts as cell-based. Details: key to % BTK degradation (RAMOS, 24 h): Y: BTK bound in cells and BTK degradation occurred; concentration or dose not given beside the values; key to % BTK degradation (RAMOS, 10 uM, 24 h): Y: EGFR bound in cells and EGFR degradation occurred. The conditions noted are these: RAMOS cells. How it is done:
Ramos RA 1 cells (ATCC) were cultured in RPMI-1640 media (Wisent) supplemented with 10% heat-inactivated FBS and 1% penicillin/streptomycin. Cells were seeded in 6-well plates at 1.71×10^6 cells/well and incubated at 37° C., 5% CO2 for 16 hours. Cells were treated with compound at the indicated concentrations or DMSO alone and incubated at 37° C., 5% CO2 for 24 hours. Cell suspensions were centrifugated at 1,400-1,600 RPM for 5 minutes at room temperature and supernatants were discarded. Cell pellets were resuspended with 1× RIPA buffer (Millipore) and incubated on ice for 15 minutes. Protein lysates were extracted by centrifugating at 20,000 RPM for 20 minutes at 4° C. Proteins were separated and total BTK protein levels were quantified by Simple Western Immunoassay (ProteinSimple) using the 12-230 kDa Jess Separation Module according to the manufacturer's protocol, using a protein concentration of 0.25 μg/μl and antibodies targeting BTK (clone #D3H5, Cell Signalling) and β-Actin (clone #AC-15, Santa Cruz) diluted to 1:400 and 1:10, respectively, where the latter was used as a loading control. An equal ratio of rabbit and mouse HRP-conjugated secondary antibodies was used for detection. BTK protein levels were quantified relative to S-Actin loading levels and subsequently normalized to the DMSO control. Phosphorylated BTK levels were quantified using the Protein Normalization Assay Module for Jess (ProteinSimple) according to the manufacturer's protocol, using a protein concentration of 1.5 μg/μl and an antibody targeting pBTK (Y223) (Cell Signalling) diluted to 1:50. Phosphorylated BTK levels were quantified relative to the Protein Normalization Reagent and subsequently normalized to the DMSO control.

Test [4] has as its target BMX (Homo sapiens (Human), UniProt P51813). Kind of test: HTRF KinEASE-TK kinase assay, BMX. It counts as biochemical. The note with it: 3 h preincubation; for remaining activity at 1 µM: 1 uM compound; for remaining activity at 10 µM: 10 uM compound. A digest of the protocol:
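Purchased BMX (0.333 ng/ul, 3.03 nM) was preincubated with or without inhibitor for 3 h at room temperature, then biotinylated substrate and ATP were added. Reactions were stopped with EDTA-containing buffer holding 31.25 nM SA-XL665 and Eu-antibody, and after 60 min phosphorylation was read as the HTRF 665/620 nm emission ratio.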

The target of test [5] is JAK3 (Homo sapiens (Human), UniProt P52333). As to the kind of experiment: HTRF KinEASE-TK kinase assay, JAK3. The note with it: for remaining activity at 1 µM: read-out: % JAK3 Remaining activity vs DMSO (1 μM, 3 h); for remaining activity at 10 µM: read-out: % JAK3 Remaining activity vs DMSO (10 μM, 3 h). It counts as biochemical. In short, it runs like this:
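Promega JAK3 at 0.21 nM was preincubated with inhibitor for 3 h at room temperature before biotinylated substrate and ATP were added. The reaction was stopped with EDTA detection buffer containing 31.25 nM SA-XL665 and Eu-antibody. After 60 min, the HTRF 665/620 nm emission ratio reflected substrate phosphorylation.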

Test [6] addresses FGFR4 (Homo sapiens (Human), UniProt P22455). As to the kind of experiment: HTRF KinEASE-TK kinase assay, FGFR4. It counts as biochemical. The note with it: for remaining activity at 1 µM: read-out: % FGFR4 Remaining activity vs DMSO (1 μM, 3 h); for remaining activity at 10 µM: read-out: % FGFR4 Remaining activity vs DMSO (10 μM, 3 h); for IC50: dose response. A digest of the protocol: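 Promega FGFR4 at 0.333 ng/ul (5.12 nM) preincubated with or without inhibitor for 3 h at room temperature, then reaction started with biotinylated substrate and ATP. Stopped with EDTA detection buffer containing 31.25 nM SA-XL665 and Eu-antibody; after 60 min, HTRF 665/620 nm ratio read as substrate phosphorylation.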

Sequence of FGFR4 (P22455 22-802): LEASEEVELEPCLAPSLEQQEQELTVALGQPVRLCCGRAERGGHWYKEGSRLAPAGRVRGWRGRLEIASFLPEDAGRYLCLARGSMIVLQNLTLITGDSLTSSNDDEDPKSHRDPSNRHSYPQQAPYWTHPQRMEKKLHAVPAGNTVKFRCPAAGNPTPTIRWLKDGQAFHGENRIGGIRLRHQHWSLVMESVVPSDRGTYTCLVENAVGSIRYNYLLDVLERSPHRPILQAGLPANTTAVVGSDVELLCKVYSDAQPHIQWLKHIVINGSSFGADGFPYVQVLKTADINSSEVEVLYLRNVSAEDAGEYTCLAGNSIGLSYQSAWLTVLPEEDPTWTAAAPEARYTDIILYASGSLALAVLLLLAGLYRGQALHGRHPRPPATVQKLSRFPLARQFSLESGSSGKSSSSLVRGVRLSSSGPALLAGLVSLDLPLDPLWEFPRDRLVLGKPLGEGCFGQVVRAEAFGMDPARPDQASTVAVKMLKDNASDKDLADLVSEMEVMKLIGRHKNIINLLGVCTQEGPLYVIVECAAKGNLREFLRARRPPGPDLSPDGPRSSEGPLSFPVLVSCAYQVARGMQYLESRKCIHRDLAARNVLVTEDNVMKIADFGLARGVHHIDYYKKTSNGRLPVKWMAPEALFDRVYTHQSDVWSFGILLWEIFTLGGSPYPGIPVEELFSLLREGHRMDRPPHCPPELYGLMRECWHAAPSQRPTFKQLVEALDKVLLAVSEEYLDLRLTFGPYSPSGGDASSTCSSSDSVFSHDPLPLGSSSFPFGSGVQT
T1 sequence (Q06187 whole entry): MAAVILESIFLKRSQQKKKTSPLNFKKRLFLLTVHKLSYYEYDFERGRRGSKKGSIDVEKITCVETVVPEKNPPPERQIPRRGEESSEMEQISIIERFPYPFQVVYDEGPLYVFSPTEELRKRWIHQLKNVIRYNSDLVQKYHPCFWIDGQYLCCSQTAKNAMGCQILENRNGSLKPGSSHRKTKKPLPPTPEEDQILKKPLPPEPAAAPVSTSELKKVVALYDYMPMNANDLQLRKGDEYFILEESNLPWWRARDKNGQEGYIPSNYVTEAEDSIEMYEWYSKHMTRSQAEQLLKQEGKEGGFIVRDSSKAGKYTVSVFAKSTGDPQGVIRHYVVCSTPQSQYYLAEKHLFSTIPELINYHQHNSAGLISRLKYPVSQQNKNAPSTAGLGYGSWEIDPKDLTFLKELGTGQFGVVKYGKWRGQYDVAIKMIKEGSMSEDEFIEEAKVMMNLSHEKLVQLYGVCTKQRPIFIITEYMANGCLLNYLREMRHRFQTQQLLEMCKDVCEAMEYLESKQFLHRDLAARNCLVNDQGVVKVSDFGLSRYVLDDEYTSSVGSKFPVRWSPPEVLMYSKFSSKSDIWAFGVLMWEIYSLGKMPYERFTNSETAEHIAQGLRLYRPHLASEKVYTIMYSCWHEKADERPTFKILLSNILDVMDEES
Sequence of JAK3 (P52333 781-1124): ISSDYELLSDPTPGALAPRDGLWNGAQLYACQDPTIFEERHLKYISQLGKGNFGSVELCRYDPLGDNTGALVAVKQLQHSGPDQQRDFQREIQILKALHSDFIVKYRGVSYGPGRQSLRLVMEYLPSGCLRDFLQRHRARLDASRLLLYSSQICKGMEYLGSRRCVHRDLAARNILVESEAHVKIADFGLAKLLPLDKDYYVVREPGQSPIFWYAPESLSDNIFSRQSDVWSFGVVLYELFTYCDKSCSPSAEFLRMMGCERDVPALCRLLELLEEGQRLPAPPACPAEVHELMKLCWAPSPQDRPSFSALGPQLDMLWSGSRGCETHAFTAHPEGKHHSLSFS
Sequence of BMX (P51813 whole entry): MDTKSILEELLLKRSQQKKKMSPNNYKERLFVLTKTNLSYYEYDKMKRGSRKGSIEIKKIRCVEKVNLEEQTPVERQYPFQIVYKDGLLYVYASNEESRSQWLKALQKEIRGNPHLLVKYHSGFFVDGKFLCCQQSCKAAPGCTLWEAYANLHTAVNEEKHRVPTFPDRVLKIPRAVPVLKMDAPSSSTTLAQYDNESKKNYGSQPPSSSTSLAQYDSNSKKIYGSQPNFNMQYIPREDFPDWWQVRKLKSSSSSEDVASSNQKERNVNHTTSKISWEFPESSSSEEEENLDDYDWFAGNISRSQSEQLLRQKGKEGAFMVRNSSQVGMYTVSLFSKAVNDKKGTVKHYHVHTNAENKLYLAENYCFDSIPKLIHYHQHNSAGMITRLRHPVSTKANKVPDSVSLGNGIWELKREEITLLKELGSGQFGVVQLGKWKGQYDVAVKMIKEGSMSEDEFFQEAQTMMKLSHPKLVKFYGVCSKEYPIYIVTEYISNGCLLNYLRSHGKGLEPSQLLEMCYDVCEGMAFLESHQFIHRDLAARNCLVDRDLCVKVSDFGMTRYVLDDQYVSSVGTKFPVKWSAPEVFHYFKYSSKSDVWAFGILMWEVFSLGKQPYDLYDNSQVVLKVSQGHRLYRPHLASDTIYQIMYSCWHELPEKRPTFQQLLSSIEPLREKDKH

On to `COCCOc1ccc(Nc2ncc(F)c(Nc3cccc(NC(=O)c4c(F)c(F)c(F)c(F)c4[S@+](C)[O-])c3)n2)cc1` (stereo in doubt) [Compound I-62, 2,3,4,5-tetrafluoro-N-(3-((5-fluoro-2-((4-(2-methoxyethoxy)phenyl)amino)pyrimidin-4-yl)amino)phenyl)-6-(methylsulfinyl)benzamide], for which the remaining activity at 1 µM in test [1] is above 90%; in test [2], below 50%; in test [4], below 50%; in test [5], above 90%; in test [6], below 50%. Moreover, the remaining activity at 10 µM in test [1] is 50 to 90%; in test [2], below 50%; in test [4], below 50%; in test [5] it was below 50%; in test [6] it was below 50%. In test [3], the “% BTK degradation (RAMOS, 24 h)” value was “Y”.
Turning to `COCCOc1ccc(Nc2ncc(F)c(Nc3cccc(Nc4c(F)c(F)c(F)c(F)c4[S@+](C)[O-])c3)n2)cc1` (stereo in doubt) [Compound I-63, 5-fluoro-N^2-(4-(2-methoxyethoxy)phenyl)-N^4-(3-((2,3,4,5-tetrafluoro-6-(methylsulfinyl)phenyl)amino)phenyl)pyrimidine-2,4-diamine], the remaining activity at 1 µM in test [1] was above 90%; in test [2], below 50%; in test [4], below 50%; in test [5], above 90%; in test [6], above 90%. Moreover, the remaining activity at 10 µM in test [1] was above 90%; in test [2] it was 50 to 90%; in test [4], below 50%; in test [5], 50 to 90%; in test [6], above 90%. The “% BTK degradation (RAMOS, 24 h)” value in test [3] is listed as “Y”. Further, the “% BTK degradation (RAMOS, 10 uM, 24 h)” value in test [3] was “Y”.
Take `CS(=O)(=O)c1c(F)c(F)c(F)c(F)c1Nc1cc2c(Nc3ccc(F)c(Cl)c3)ncnc2cc1O[C@H]1CCOC1` [Compound I-2, (S)—N^4-(3-chloro-4-fluorophenyl)-N^6-(2,3,4,5-tetrafluoro-6-(methylsulfonyl)phenyl)-7-((tetrahydrofuran-3-yl)oxy)quinazoline-4,6-diamine]: the remaining activity at 1 µM in test [1] is below 50%; in test [2], above 90%; in test [4], 50 to 90%; in test [5] it was 50 to 90%; in test [6], above 90%. Further, the remaining activity at 10 µM in test [1] is below 50%; in test [2] it was 50 to 90%; in test [4] it was above 90%; in test [5] it was below 50%; in test [6] it was 50 to 90%. In test [1], the IC50 is below 1 µM. Moreover, the “% BTK degradation (RAMOS, 24 h)” value in test [3] is reported as “Y”.
`C[S+]([O-])c1c(F)c(F)c(F)c(F)c1C(=O)Nc1cc2c(Nc3ccc(F)c(Cl)c3)ncnc2cc1OC1CCOC1` (centres unmarked) [Compound I-3]: the remaining activity at 1 µM is below 50% in test [1]; 50 to 90% in test [2]; 50 to 90% in test [4]; above 90% in test [5]; above 90% in test [6]. Further, the remaining activity at 10 µM was below 50% in test [1]; 50 to 90% in test [2]; above 90% in test [4]; above 90% in test [5]; above 90% in test [6]. In addition, the IC50 in test [1] was below 1 µM. The “% BTK degradation (RAMOS, 24 h)” value in test [3] is listed as “Y”.
For the compound `C[S+]([O-])c1c(F)c(F)c(F)c(F)c1Nc1cc2c(Nc3ccc(F)c(Cl)c3)ncnc2cc1O[C@H]1CCOC1` (stereo partly drawn) [Compound I-4, N^4-(3-chloro-4-fluorophenyl)-N^6-(2,3,4,5-tetrafluoro-6-(methylsulfinyl)phenyl)-7-(((S)-tetrahydrofuran-3-yl)oxy)quinazoline-4,6-diamine], the remaining activity at 1 µM in test [1] is below 50%; in test [2], above 90%; in test [4], above 90%; in test [5], above 90%; in test [6] it was above 90%. Also, the remaining activity at 10 µM in test [1] was below 50%; in test [2], below 50%; in test [4], above 90%; in test [5], above 90%; in test [6], above 90%. In addition, the IC50 in test [1] is below 1 µM. In addition, the “% BTK degradation (RAMOS, 24 h)” value in test [3] is on record as “Y”. Moreover, the “% BTK degradation (RAMOS, 10 uM, 24 h)” value in test [3] is “Y”.
`Nc1ncnc2c1c(-c1ccc(Oc3ccccc3)cc1)nn2[C@@H]1CCN(S(=O)(=O)c2c(F)c(F)c(F)c(F)c2OCF)C1` [Compound I-24, (R)-3-(4-phenoxyphenyl)-1-(1-((2,3,4,5-tetrafluoro-6-(fluoromethoxy)phenyl)sulfonyl)pyrrolidin-3-yl)-1H-pyrazolo[3,4-d]pyrimidin-4-amine]: the remaining activity at 1 µM in test [1] is above 90%; in test [2], below 50%; in test [4], below 50%; in test [5], above 90%; in test [6] it was below 50%. The remaining activity at 10 µM in test [1] was above 90%; in test [2], below 50%; in test [4] it was below 50%; in test [5], 50 to 90%; in test [6], below 50%. The same compound showed an IC50 in test [6] above 1 µM.
Turning to `COCCOc1ccc(Nc2ncc(F)c(Nc3cccc(NC(=O)c4c(F)c(F)c(F)c(F)c4S(C)(=O)=O)c3)n2)cc1` [Compound I-61, 2,3,4,5-tetrafluoro-N-(3-((5-fluoro-2-((4-(2-methoxyethoxy)phenyl)amino)pyrimidin-4-yl)amino)phenyl)-6-(methylsulfonyl)benzamide], the remaining activity at 1 µM is above 90% in test [1]; below 50% in test [2]; below 50% in test [4]; below 50% in test [5]; below 50% in test [6]. Moreover, the remaining activity at 10 µM in test [1], in test [2], in test [4], in test [5] and in test [6] was below 50% each time. The half-maximal inhibitory concentration (IC50) in test [5] (dose response) and in test [6] was below 1 µM throughout.

One may read the remaining activity as the signal under treatment as a percentage of the control signal. The term IC50 denotes the concentration that gives 50% inhibition.
